The text below walks through data of PubChem BioAssay (NCI).

Some test systems named below: NCI-H460 lung; SF-539 CNS; CCRF-CEM leukemia; UO-31 renal; OVCAR-5 ovarian; SF-295 CNS; HCT-116 colon; M14 melanoma; A498 renal; CAKI-1 renal.
Assay in all cases: inhibition of tumour cell growth, NCI panel, 48 h

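Following 48 hours of exposure in 96-well plates, responses at five concentrations were used to interpolate endpoints linearly. At the GI50, growth is halved. The concentration for full growth arrest is given as TGI.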

For `COc1ccccc1C#Cc1ccccc1C#Cc1ccc(OCCCCCCOc2ccccc2C#Cc2ccccc2C#Cc2ccccc2OC)cc1`, the GI50 in the assay with NCI-H460 lung, in the assay with SF-539 CNS, with CCRF-CEM leukemia, with UO-31 renal, in the assay on OVCAR-5 ovarian and in the assay on SF-295 CNS was > 100 µM each time. Further, the GI50 in the assay on HCT-116 colon, with M14 melanoma, with A498 renal and with CAKI-1 renal was > 100 µM throughout. For the same molecule, the TGI with NCI-H460 lung, with SF-539 CNS, in the assay with CCRF-CEM leukemia, in the assay with UO-31 renal, with OVCAR-5 ovarian and in the assay with SF-295 CNS was > 100 µM in each case. In addition, the TGI with HCT-116 colon, with M14 melanoma, in the assay on A498 renal and in the assay on CAKI-1 renal was > 100 µM in each case.

Consider `COC[C@H](NC(=O)c1cnc(C)s1)C(=O)N[C@@H](COC)C(=O)N[C@@H](Cc1ccccc1)C(=O)[C@@]1(C)CO1`, for which the GI50 with NCI-H460 lung is 37.1 µM; with SF-539 CNS, 27.7 µM; in the assay on CCRF-CEM leukemia, 21.3 µM; in the assay on UO-31 renal, 30.9 µM; in the assay on OVCAR-5 ovarian, 33.3 µM; in the assay with SF-295 CNS, 20.1 µM. Besides, the GI50 in the assay with HCT-116 colon was 9.27 µM; in the assay on M14 melanoma, 24.3 µM; with A498 renal, 45.3 µM; with CAKI-1 renal it was 38.5 µM. Moreover, the TGI with NCI-H460 lung is > 100 µM; with SF-539 CNS it was > 74.1 µM; with CCRF-CEM leukemia, > 100 µM; in the assay on UO-31 renal, > 100 µM; in the assay with OVCAR-5 ovarian, > 94 µM; with SF-295 CNS, 72.7 µM. In addition, the TGI was 32.6 µM with HCT-116 colon, > 69.8 µM in the assay with M14 melanoma, > 100 µM in the assay with A498 renal and > 100 µM with CAKI-1 renal.

In the case of `C=C(C)[C@@H]1CC[C@]2(CO)CC[C@]3(C)[C@H](CC[C@@H]4[C@@]5(C)CCCNC(C)(C)[C@@H]5CC[C@]43C)[C@@H]12`, the GI50 in the assay on NCI-H460 lung is 1.63 µM; in the assay on SF-539 CNS, 1.58 µM; in the assay on CCRF-CEM leukemia it was 2.07 µM; with UO-31 renal it was 1.56 µM; with OVCAR-5 ovarian, 1.51 µM; in the assay with SF-295 CNS it was 1.66 µM. The GI50 in the assay with HCT-116 colon was 1.29 µM; in the assay with M14 melanoma, 1.58 µM; in the assay on A498 renal it was 2.17 µM; in the assay on CAKI-1 renal, 1.55 µM. Also, the TGI with NCI-H460 lung stood at 3.21 µM; in the assay with SF-539 CNS, 3.01 µM; in the assay on CCRF-CEM leukemia it was 4.91 µM; with UO-31 renal, 2.99 µM; in the assay on OVCAR-5 ovarian it was 2.89 µM; with SF-295 CNS, 3.13 µM. For the same molecule, the TGI with HCT-116 colon was determined as 2.63 µM; in the assay on M14 melanoma, 3.13 µM; in the assay with A498 renal it was 5.63 µM; with CAKI-1 renal, 2.89 µM.

As for `Cc1ccc(CNc2ccc3nc(CCC4CCCCC4)[nH]c3c2)cc1`, the GI50 with NCI-H460 lung is 2.99 µM; in the assay with SF-539 CNS it was 2.42 µM; in the assay with CCRF-CEM leukemia it was 3.29 µM; in the assay on UO-31 renal, 1.35 µM; in the assay with OVCAR-5 ovarian it was 2.52 µM; in the assay with SF-295 CNS, 1.88 µM. Moreover, the GI50 in the assay on HCT-116 colon was 1.95 µM; in the assay on M14 melanoma, 1.91 µM; in the assay on A498 renal, 1.44 µM; in the assay on CAKI-1 renal, 2.67 µM. In addition, the TGI was 8.6 µM in the assay on NCI-H460 lung; 6.06 µM in the assay on SF-539 CNS; > 100 µM in the assay on CCRF-CEM leukemia; 3.3 µM in the assay with UO-31 renal; 8.18 µM with OVCAR-5 ovarian; 3.92 µM in the assay with SF-295 CNS. Also, the TGI amounted to 5.05 µM in the assay with HCT-116 colon, 3.9 µM in the assay on M14 melanoma, 4.32 µM with A498 renal and 7.03 µM in the assay with CAKI-1 renal.

Turning to `CC1=C([Te]c2ccccc2)C(=O)c2ccccc2C1=O`, the GI50 with NCI-H460 lung was 0.177 µM; in the assay on SF-539 CNS, 0.146 µM; in the assay on CCRF-CEM leukemia it was 0.312 µM; in the assay on UO-31 renal, 0.246 µM; in the assay with OVCAR-5 ovarian, 0.283 µM; with SF-295 CNS, 0.24 µM. Also, the GI50 in the assay with HCT-116 colon was 0.284 µM; in the assay with M14 melanoma it was 0.424 µM; in the assay with A498 renal, 0.239 µM; in the assay on CAKI-1 renal it was 0.974 µM. For the same molecule, the TGI turned out to be 0.391 µM in the assay with NCI-H460 lung; 1.03 µM with SF-539 CNS; 3.3 µM with CCRF-CEM leukemia; 1.12 µM in the assay with UO-31 renal; 0.86 µM in the assay with OVCAR-5 ovarian; 0.697 µM with SF-295 CNS. Moreover, the TGI in the assay on HCT-116 colon came to 0.901 µM; with M14 melanoma, 1.76 µM; in the assay on A498 renal, 0.977 µM; in the assay on CAKI-1 renal it was 3.2 µM.

As to `O=c1cc(-c2ccc(F)cc2)[nH]c2ncccc12`, the figures for the GI50 in the assay on NCI-H460 lung, in the assay with SF-295 CNS and with HCT-116 colon were 34.7 µM, 50 µM and 42.9 µM, respectively. In addition, the TGI in the assay on NCI-H460 lung, in the assay with SF-539 CNS, in the assay with CCRF-CEM leukemia, in the assay on UO-31 renal, in the assay with OVCAR-5 ovarian and in the assay with SF-295 CNS was > 100 µM throughout. Also, the TGI with HCT-116 colon, with M14 melanoma, in the assay with A498 renal and in the assay on CAKI-1 renal was > 100 µM each time.
